Measurements reported in patent US4017488A, “Process for preparing 7β-acylamino-7α-alkoxycephalosporins” (Sankyo Company Limited, priority 1974, dated 1977).
Values after ≈ are worked out from the molar mass of the structure shown.

What was measured:
Format in all cases: cell-based
[1] = system: broad range of disease germs; test: Antimicrobial activities (general statement); conditions: statement in words
[2] = system: Klebsiella neumoniae 846 (CER resistant); test: Minimal inhibitory concentration, IV B; conditions: read-out: Minimal inhibitory concentrations
From the text: (§1) Minimal inhibitory concentrations of various microorganisms mcg/ml
IV B: Klebsiella neumoniae 846 (CER resistant)

[3] = system: Staphylococcus aureus 209p; test: Minimal inhibitory concentration, I A; conditions: read-out: Minimal inhibitory concentrations
From the text: as §1
*I A: Staphylococcus aureus 209p

[4] = system: Staphylococcus aureus (CP and PC resistant); test: Minimal inhibitory concentration, I B; conditions: read-out: Minimal inhibitory concentrations
From the text: as §1
I B: Staphylococcus aureus (CP and PC resistant)

[5] = system: Shigella flexneri Komagome; test: Minimal inhibitory concentration, III; conditions: read-out: Minimal inhibitory concentrations
From the text: as §1
III: Shigella flexneri Komagome

Structure (SMILES)	anti-bacterial / antimicrobial activities [1]	also measured
CO[C@@]1(NC(=O)CSc2nnc[nH]2)C(=O)N2C(C(=O)O)=C(COC(N)=O)CS[C@@H]21 [7β-(1,2,4-triazol-4H-3-yl)thioacetamido-7α-methoxy-3-carbamoyloxymethyl-3-cephem-4-carboxylic acid]	excellent anti-bacterial activities against a broad range of disease germs	–
CO[C@@]1(NC(=O)CSc2nncs2)C(=O)N2C(C(=O)O)=C(CSc3nnnn3C)CS[C@@H]21 [7β-(1,3,4-thiadiazol-2-yl)thioacetamido-7α-methoxy-3-(1-methyl-1H-tetrazol-5-yl)thiomethyl-3-cephem-4-carboxylic acid]	excellent anti-bacterial activities against a broad range of disease germs	–
CO[C@@]1(NC(=O)CSc2nncs2)C(=O)N2C(C(=O)O)=C(COC(C)=O)CS[C@@H]21 [7β-(1,3,4-thiadiazol-2-yl)thioacetamido-7α-methoxy-3-acetoxymethyl-3-cephem-4-carboxylic acid]	excellent anti-bacterial activities against a broad range of disease germs	–
CO[C@@]1(NC(=O)CSc2nncs2)C(=O)N2C(C(=O)O)=C(COC(N)=O)CS[C@@H]21 [7β-(1,3,4-thiadiazol-2-yl)thioacetamido-7α-methoxy-3-carbamoyloxymethyl-3-cephem-4-carboxylic acid]	excellent anti-bacterial activities against a broad range of disease germs	–
CO[C@@]1(NC(=O)CSc2ccon2)C(=O)N2C(C(=O)O)=C(COC(C)=O)CS[C@@H]21 [7β-(3-isoxazolyl)thioacetamido-7α-methoxy-3-acetoxymethyl-3-cephem 4-carboxylic acid]	excellent anti-bacterial activities against a broad range of disease germs	–
CO[C@@]1(NC(=O)COc2ccon2)C(=O)N2C(C(=O)O)=C(CSc3nnnn3C)CS[C@@H]21 [7β-(3-isoxazolyloxy)acetamido-7α-methoxy-3-(1-methyl-1H-tetrazol-5-yl)thiomethyl-3-cephem-4-carboxylic acid]	excellent anti-bacterial activities against a broad range of disease germs	MIC [2]: > 400 µg/mL; MIC [3]: 0.2 µg/mL (≈ 0.414 µM); MIC [4]: 0.8 µg/mL (≈ 1.65 µM); MIC [5]: 3.1 µg/mL (≈ 6.41 µM)
CO[C@@]1(NC(=O)COc2ccon2)C(=O)N2C(C(=O)O)=C(COC(C)=O)CS[C@@H]21 [7β-(3-isoxazolyloxy)acetamido-7α-methoxy-3-acetoxymethyl-3-cephem-4-carboxylic acid]	excellent anti-bacterial activities against a broad range of disease germs	–
CO[C@@]1(NC(=O)CSc2nnc(C)s2)C(=O)N2C(C(=O)O)=C(CSc3nnnn3C)CS[C@@H]21 [7β-(5-methyl-1,3,4-thiadiazol-2-yl)thioacetamido-7α-methoxy-3-(1-methyl-1H-tetrazol-5-yl)thiomethyl-3-cephem-4-carboxylic acid]	excellent anti-bacterial activities against a broad range of disease germs	–
CO[C@@]1(NC(=O)CSc2nnc(C)s2)C(=O)N2C(C(=O)O)=C(COC(N)=O)CS[C@@H]21 [7β-(5-methyl-1,3,4-thiadiazol-2-yl)thioacetamido-7α-methoxy-3-carbamoyloxymethyl-3-cephem-4-carboxylic acid]	excellent anti-bacterial activities against a broad range of disease germs	–
CO[C@@]1(NC(=O)CSc2ncc[nH]2)C(=O)N2C(C(=O)O)=C(CSc3nnnn3C)CS[C@@H]21 [7β-(imidazol-2-yl)thioacetamido-7α-methoxy-3-(1-methyl-1H-tetrazol-5-yl)thiomethyl-3-cephem-4-carboxylic acid]	excellent anti-bacterial activities against a broad range of disease germs	–
CO[C@@]1(NC(=O)CSc2ncc[nH]2)C(=O)N2C(C(=O)O)=C(COC(C)=O)CS[C@@H]21 [7β-(imidazol-2-yl)thioacetamido-7α-methoxy-3-acetoxymethyl-3-cephem-4-carboxylic acid]	excellent anti-bacterial activities against a broad range of disease germs	–
CO[C@@]1(NC(=O)CSc2ncc[nH]2)C(=O)N2C(C(=O)O)=C(COC(N)=O)CS[C@@H]21 [7β-(imidazol-2-yl)thioacetamido-7α-methoxy-3-carbamoyloxymethyl-3-cephem-4-carboxylic acid]	excellent anti-bacterial activities against a broad range of disease germs	–
CO[C@@]1(NC(=O)CSCN=[N+]=[N-])C(=O)N2C(C(=O)O)=C(COC(C)=O)CS[C@@H]21 [7β-azidomethylthioacetamido-7α-methoxy-3-acetoxymethyl-3-cephem-4-carboxylic acid]	excellent anti-bacterial activities against a broad range of disease germs	–
CO[C@@]1(NC(=O)CSCC#N)C(=O)N2C(C(=O)O)=C(CSc3nnnn3C)CS[C@@H]21 [7β-cyanomethylthioacetamido-7α-methoxy-3-(1-methyl-1H-tetrazol-5-yl)thiomethyl-3-cephem-4-carboxylic acid]	excellent anti-bacterial activities against a broad range of disease germs	–
CO[C@@]1(NC(=O)CSCC#N)C(=O)N2C(C(=O)O)=C(COC(C)=O)CS[C@@H]21 [7β-cyanomethylthioacetamido-7α-methoxy-3-acetoxymethyl-3-cephem-4-carboxylic acid]	excellent anti-bacterial activities against a broad range of disease germs	–
CO[C@@]1(NC(=O)CSCC#N)C(=O)N2C(C(=O)O)=C(COC(N)=O)CS[C@@H]21 [7β-cyanomethylthioacetamido-7α-methoxy-3-carbamoyloxymethyl-3-cephem-4-carboxylic acid]	excellent anti-bacterial activities against a broad range of disease germs	–
C#CCSCC(=O)N[C@]1(OC)C(=O)N2C(C(=O)O)=C(CSc3nnnn3C)CS[C@@H]21 [7β-propargylthioacetamido-7α-methoxy-3-(1-methyl-1H-tetrazol-5-yl)thiomethyl-3-cephem-4-carboxylic acid]	excellent anti-bacterial activities against a broad range of disease germs	–
C#CCSCC(=O)N[C@]1(OC)C(=O)N2C(C(=O)O)=C(COC(C)=O)CS[C@@H]21 [7β-propargylthioacetamido-7α-methoxy-3-acetoxymethyl-3-cephem-4-carboxylic acid]	excellent anti-bacterial activities against a broad range of disease germs	–
C#CCSCC(=O)N[C@]1(OC)C(=O)N2C(C(=O)O)=C(COC(N)=O)CS[C@@H]21 [7β-propargylthioacetamido-7α-methoxy-3-carbamoyloxymethyl-3-cephem-4-carboxylic acid]	excellent anti-bacterial activities against a broad range of disease germs	–
